Values of other authors as cited in patent publication US9139604B2, “Antiviral phosphonate analogs” (Gilead Sciences, Inc., priority 2003, dated 2015).

Test system: HIV
Conditions: described in the literature; kind of value (EC50/IC50) not stated

Nc1nc(=O)c2ncn([C@@H]3C[C@H](CO)[C@H]3CO)c2[nH]1 [lubocavir]
anti-HIV activity: 30 µM
